This is an account of results in patent publication US5783449A (priority 1996, dated 1998).

In data set [1] the test system is Microsomal Ethanol-Oxidation System (MEOS). To be noted: human body; stated as well known; cited from earlier work.
The conditions of data set [2]: in vivo. From the text:
(§1) To verify the results, after ethanol consumption, BAC levels were repeatedly measured by INTOXIMETER EC/IR 3000, until two successive zero BAC measurements were obtained. […] A special electrochemical membrane measured oxidation by transdermal ethanol. The resulting current measured is expressed in micro Amperes (μA) and was automatically multiplied by 35 for TAS#37; by 40 for TAS#34, TAS#39, or by 45 for TAS#33 depending on type of construction for the device.

A further data set in a line: clinical. To be noted: in vivo.
From the text: Even though ethanol elimination begins at very outset of consumption, formally the process breaks out from an apex into a pharmacokinetical curve--the break point of a neutralizing reaction against extreme absorption-distribution action.
AUCabs-distr is the absorption-distribution of ethanol and is equal to the AUC under the ascending part of the curve;
AUCpostabs +AUCdistr is a sum of the postabsorption and distribution of ethanol and is equal to the AUC between the ascending and descending part of the plotted curve. Because most pharmacokinetical cases have a triangle-like shape for the curve, it obviously has no value. However, if the value occurs (in a case with a trapezium-like shape for the curve) it disregards from calculation, because proportional representation for this internal rectangular-like composite AUC is the same as the Index-K value;
and AUCelim is the elimination of ethanol and is equal to the AUC under the descending part of the pharmacokinetical curve.
as §1
BAC tests were conducted on 83 volunteer individuals, 48 of whom were non-alcoholic males, 27 of whom were non-alcoholic females and 8 of whom were alcoholic males.
This dose was divided into three equal parts.
(§2) The BAC readings used in tables 1 and 2 were obtained using breath samples taken with the INTOXIMETER EC/IR 3000 made by Intoximeters, Inc. of St. Louis, Mo. This device has a rated accuracy of ±0.001 (1 mg/dl). The machine was reprogrammed to increase ethanol values by five percent from factory settings to more accurately reflect actual BAC.

The conditions of data set [3]: in vivo. The protocol:
as §2
The source holds these as a separate data set.

With `CCO` [alcohol, ethanol], in data set [1], the “fraction of consumed alcohol destroyed by MEOS” value is listed as “approximately one-fifth”. Moreover, in data set [2], the “Index-K (range over methods)” value is given as 1.9-1.97, the “variation in the amplitude of the curves” value is recorded as 2.7 fold, the “variation of the elimination time” value came to 1.9 fold and the “variation of the time to peak” value amounted to 1.7 fold. For the same molecule, in the data set “clinical” (human, po), the Time to peak is reported as 66 ' and the “peak in the BAC” value is recorded as 68.2 (s.d.=8.98). The same molecule came in with a Cmax in the data set “clinical” (human, po, peak in the BAC) of 697 µg/mL. Besides, the “ratio of Index-K between alcoholic and non-alcoholic drinkers” value in the data set “clinical” was “about twice”. Also, the blood/breath ratio in data set [3] stood at 0.994.

As usually defined, the Cmax is the peak of the concentration-time curve.
